Assay results: a melting point compilation (Tetko et al.; mined from patent text by program, amines drawn as free bases though some values may be those of a salt)

melting point [°C]	Structure (SMILES)
119 to 120	CCOC(=O)c1c(CN(CC)CC)nc2sc3c(c2c1-c1ccc(OC)c(OC)c1)CCN(C(=O)OCC)C3
175 to 178	CC(C)(C)c1cccc(C(C)(C)C)c1C(OC(N)=O)S(=O)(=O)NC(c1ccccc1)c1ccccc1 (stereo not drawn)
107	Cc1c2c(nc3ccccc13)CCN(C(=O)C(C)C)CC2
143	CN1C(=S)N(c2cc(Cl)cc(Cl)c2)C(O)C1O (stereo not drawn)
254 to 255	CCCN(CCC)NNc1nc(C(=O)c2ccccc2O)nc(C(=O)c2ccccc2O)n1
177 to 178	O=C1CCCC(=O)N1c1cc(I)cc(I)c1
158 to 160	CCOc1ncc(S(=O)(=O)N2CCN(CC)CC2)cc1-c1nc2c(CC)n(CCOC)nc2c(=O)[nH]1
45 to 47	CC(=O)Nc1c(Cl)cnn1-c1c(F)c(F)c(C(F)(F)F)c(F)c1F
130	OC(CN1CCNC1=S)c1ccc(F)cc1 (stereo not drawn)
178 to 180	O=C(O)Cn1cc(Cc2nc3c(F)c(F)cc(F)c3s2)c2ccc(N3CCOCC3)cc21
137 to 138	CC(C)(C)OC(=O)COc1cc2cc(C(C)(C)O)sc2c(Cl)c1Cl
82 to 84	COc1ccc(C(=O)NCCc2cccc(OCc3ccccc3)c2)cc1OC
144 to 149	CC1=NN(c2ccc(C)c(C)c2)C(=O)C1=NNc1cccc(-c2cccc(P(=O)(O)O)c2)c1O
98	CCOC(=O)C1CCN(c2ccc(N)cc2C#N)CC1
111 to 113	CC(C)n1nc(-c2sc(NC(=O)c3ccc(CNCCO)cc3)nc2-c2ccccc2)ccc1=O
> 300	N#Cc1ccc(-c2cn(-c3ccc(C#N)cc3)c(SCCO)n2)cc1
76 to 78	OC1CCC2(CC1)Cc1ccccc1C2
135 to 137	O=C(Nc1ccc(Oc2ccc(Cl)cc2)nc1)N1CCc2ccccc2CC1

melting point [°C]	Structure (SMILES)
200 to 203	CCOC(=O)COc1ccc(NC(=O)NC(=O)c2ccc(C#N)cc2)cc1
122 to 124	CCC(=NC#N)N[C@@H]1c2cc(C#N)ccc2OC(C)(C)[C@H]1O (relative stereo)
117 to 119	COc1cc(C)c(C(=O)c2c(OC)cnc(Cl)c2C(F)(F)F)c(OC)c1OC
143 to 144	COc1ccc(C#CCSc2ccc(OCC(=O)O)c(C)c2)cc1
243 to 245	COc1cc(NC(=O)CNC(=O)c2ccccc2)ccc1-c1cnco1
173 to 175	CCCc1c(OCCCS(=O)c2nc3ccc(C(=O)O)cc3[nH]2)ccc(C(C)=O)c1O (stereo not drawn)
173 to 175	CCCN(CC(=O)Nc1c(SC)nc(C)nc1N(CC)CC)c1ccccc1
230 to 232	Cn1cc(-c2cc3cccnc3[nH]2)c2cc(C(=O)N(CCO)CCO)ccc21
50 to 52	CC#CCOc1ccc(S(=O)(=O)N(C)c2c(C(=O)OCC)cnc3c2c(C)nn3C)cc1
160 to 161	COC(=O)c1ccc(Nc2ccn(-c3ccccc3)n2)cc1
94 to 95	Cc1cccc2c(-c3ccc(Cl)cc3Cl)onc12
74 to 75	C=CCNc1nc(NCCC)nc2c(C)csc12
100 to 102	CC(C)c1nc2c(nc1C(C)C)-c1c(c(-c3ccc(C(=O)O)cc3)cn1Cc1cccnc1)CC2
150 to 152	O=C1c2cc3ccc4c(c3c(-c3ccc5c(c3)OCO5)c2C(=O)N1CCCO)OCO4
91 to 93	CC(C)Cc1nn(C)c(=O)c2cn(Cc3ccncc3)cc12
235 to 236	Cn1c(Br)nc2c([N+](=O)[O-])cc(Br)cc21
233 to 235	CC1=C(C(=O)OCCOc2ccccc2)C(c2cccc(Cl)c2C)C2=C(CNCC2=O)N1 (stereo not drawn)
192 to 193	N#Cc1cccc(CSc2nnc(-c3ccc4ncc(-c5ccccn5)n4c3)o2)c1

Structure (SMILES)	melting point [°C]
NC(=O)CN(N=O)N1CCOCC1	134 to 136
CC(C)(C)NCCOP1Oc2c(cc(C(C)(C)C)cc2C(C)(C)C)Cc2cc(C(C)(C)C)cc(C(C)(C)C)c2O1	189 to 192
